Experimental data from patent US9487557B2, “Peptides for management of lactation” (MILEUTIS LTD., priority 2012, dated 2016).
Square brackets hold non-standard residues; d marks the D form. Ends that are not written are not given here. pS = N[C@@H](COP(=O)(O)O)C(=O)O

Columns and labels:
Assay type in all cases: in vivo
[1] = tested on: mammary gland of lactating dairy cows; assay: Field study of involution induction: change in lactose content of milk samples after a single intramammary infusion at dry-off; details: difference in lactose concentration vs Day 0, single intramammary infusion, peptides 4 mg in 10 ml, casein hydrolyzate 20 ml; for Changes in Lactose content in milk samples, Day 1, Mean: Day 1 post treatment; for Changes in Lactose content in milk samples, Day 2, Mean: Day 2 post treatment; for Changes in Lactose content in milk samples, Day 3, Mean: Day 3 post treatment
Procedure: (§1) A filed study was performed to assess the potential of a single intramammary dose of the synthetic peptides of the invention administered at dry (i.e. at the day in which milking is ceased), to induce rapid involution.
(§2) Total of 107 dairy cows were enrolled to the study, of which 45 received treatment and 62 served as a control. All cows were dairy cows at their first or further lactation that stand the inclusion/exclusion criteria. The study was a controlled blinded case-control study.
(§3) Case subjects received one dose by intramammary infusion of a particular peptide. Controls were lactating cows that received the following products by intramammary administration:
(§4) Five groups of 9 cows (total of 36 udder quarters per group) were scheduled as case groups. Each group was treated with one out of the five (5) phosphopeptides described in Example 1 hereinabove (P241210-01-01; 03; 05; 07 and 09). The peptides were administered once via intramammary infusion of 10 ml containing 4 mg peptide.
(§5) Set one: Five groups of 9 cows (total of 36 udder quarters per group) were scheduled as a first control set. Each group was treated with one out of the five (5) dephosphorylated peptides described in Example 1 hereinabove (P241210-01-02; 04; 06; 08 and 10). The peptides were administered once via intramammary infusion of 10 ml containing 4 mg peptide.
(§6) (i) Eleven cows (total of 44 udder quarters) treated with casein hydrolyzate (20 ml) administered once via intramammary infusion of 20 ml (around 1.8 mg/ml casein phosphopeptide (CPP), total=36 mg CPP for 20 ml)
(§7) All treatments (peptides, casein hydrolyzate and saline) were administered at the time point scheduled for cessation of milking (dry off). The day of administration was set as Day 0.
(§8) Sets of aseptic milk samples were collected in two separate vials once a day in the milking facility after the morning milking, on Day 0 and in post-treatment days 1, 2 and 3. The sampling time points were set to up to three days after treatment administration to ensure sufficient milk secretion for the measurements of all involution parameters. The volume of the samples was between 30 to 50 ml. The pH of the milk sample was measured in situ using a Cyberscan pH11 meter (Eutech Instruments, Singapore). The apparatus was calibrated each day by immersing the receptor in standard buffers of pH 7.0 and pH 4.01. Measurements were taken twice for each sample obtained from a mammary gland, with an interval of 30 seconds between measurements. pH measurement was repeated on-site by using the same sample vial. Before double-pH measurement, the milk sample vials were gently shaken three (3) times. After the pH measurement, the milk samples vials were kept in cool storage with a preservative product (Broad Spectrum Microtabs II—Bronopol and Metamycin—D&F Control System Inc., Two Technology Way, Norwood Mass. 02062 USA).
Lactose values in the milk samples were determined at the Central Laboratory of Milk Quality, Caesaria Industrial Park, Israel, according to ISO 2266211DF 198:2007.
Data from six quarters were excluded from the analysis of lactose changes. Data from one of those quarters were omitted due to a missing initial value. For the other five quarters, lactose concentrations taken during the three follow-up days could not be analyzed due to a rapid mammary involution process, resulting in non-sufficient milk sample for lactose analysis.
(§9) Endpoint Measures: pH, lactose and somatic cell counts (SCC) values from milk secretions at day 0 and during three (3) days post-treatment were taken. Results are described as the difference between the measures at each of the 3 days post treatment and the measured level at Day 0.
One of the most significant outcomes of involution in terms of milk composition is a reduction in lactose content. Thus, lactose concentration was also measured in the milk samples taken before and after peptide or CNH administration as described for the pH measurements hereinabove. […]

[2] = tested on: mammary gland of lactating dairy cows; assay: Field study of involution induction: change in somatic cell counts in milk samples after a single intramammary infusion at dry-off; details: change vs Day 0, calculated from log transformation of raw data, single intramammary infusion, peptides 4 mg in 10 ml, casein hydrolyzate 20 ml; for Changes in Somatic Cell Counts in milk samples, Day 1, Mean: Day 1 post treatment; for Changes in Somatic Cell Counts in milk samples, Day 2, Mean: Day 2 post treatment; for Changes in Somatic Cell Counts in milk samples, Day 3, Mean: Day 3 post treatment
Procedure: as §1, §2, §3, §4, §5, §6, §7, §8
Somatic cell count was also determined in milk samples by Fossomatic 360 (Foss Electric, Hillerod, Denmark), and based on guidelines from the USA National Mastitis Council. Laboratory Handbook on Bovine Mastitis. 1999. Ed. National Mastitis Council, Verona, Wis. 53593 USA.
as §9
Additional parameter that may be used to establish the progression of the involution process is the presence of somatic cells within the milk. The increase in cell count within the milk is the result of high degree of apoptotic epithelial cell death associated with involution. […] The results presented in the table were calculated from log transformation of the raw data that were highly variable.

[3] = tested on: mammary gland of lactating dairy cows; assay: Field study of involution induction: change of pH in milk samples after a single intramammary infusion at dry-off; details: difference in pH vs Day 0, single intramammary infusion, peptides 4 mg in 10 ml, casein hydrolyzate 20 ml; for Changes of pH in milk samples, Day 1, Mean: Day 1 post treatment; for Changes of pH in milk samples, Day 2, Mean: Day 2 post treatment; for Changes of pH in milk samples, Day 3, Mean: Day 3 post treatment
Procedure: as §1, §2, §3, §4, §5, §6, §7, §8, §9
Table 2 below summarizes the effect of the peptides examined and of casein hydrolyzate (CNH) on the pH of milk samples taken 1, 2 and 3 days after the one-dose treatment with each peptide or CNH. The results are presented as the difference in pH value between each of the days post treatment and Day 0 (before treatment).

| Substance | Changes in Lactose content in milk samples, Day 1, Mean [1] | Changes in Lactose content in milk samples, Day 2, Mean [1] | Changes in Lactose content in milk samples, Day 3, Mean [1] | Changes in Somatic Cell Counts in milk samples, Day 1, Mean [2] | Changes in Somatic Cell Counts in milk samples, Day 2, Mean [2] | Changes in Somatic Cell Counts in milk samples, Day 3, Mean [2] | Changes of pH in milk samples, Day 1, Mean [3] | Changes of pH in milk samples, Day 2, Mean [3] | Changes of pH in milk samples, Day 3, Mean [3] |
| --- | --- | --- | --- | --- | --- | --- | --- | --- | --- |
| Lys-Ser(P)-Ser(P)-Ser(P)-Glu-Glu-NH2 (K[pS][pS][pS]EE-NH2; N-terminus assumed; SMILES NCCCC[C@H](N)C(=O)N[C@@H](COP(=O)(O)O)C(=O)N[C@@H](COP(=O)(O)O)C(=O)N[C@@H](COP(=O)(O)O)C(=O)N[C@@H](CCC(=O)O)C(=O)N[C@@H](CCC(=O)O)C(N)=O) [E(p), casein-derived peptide, positive control] | −0.354 | −1.530 | −2.042 | 0.060 | 1.175 | 1.847 | 0.045 | 0.061 | 0.128 |
| Lys-Lys-Ser-Ser-NH2 [C] | −0.846 | −1.554 | −0.387 | 0.511 | 1.194 | 0.650 | 0.034 | −0.006 | −0.001 |
| KKSLSS-NH2 [A] | −0.463 | −1.268 | −1.773 | 0.911 | 1.571 | 2.090 | 0.048 | −0.002 | 0.072 |
| KSSSEE-NH2 | −0.368 | −1.531 | −1.675 | −0.186 | 0.843 | 1.492 | 0.047 | −0.028 | 0.115 |
| Glu-Ser(P)-Leu-Ser(P)-Ser(P)-Ser(P)-Glu-Glu-NH2 (E[pS]L[pS][pS][pS]EE-NH2; N-terminus assumed; SMILES CC(C)C[C@H](NC(=O)[C@H](COP(=O)(O)O)NC(=O)[C@@H](N)CCC(=O)O)C(=O)N[C@@H](COP(=O)(O)O)C(=O)N[C@@H](COP(=O)(O)O)C(=O)N[C@@H](COP(=O)(O)O)C(=O)N[C@@H](CCC(=O)O)C(=O)N[C@@H](CCC(=O)O)C(N)=O) [D(p), casein-derived peptide, positive control] | −0.431 | −1.460 | −2.180 | 0.383 | 1.181 | 1.998 | 0.027 | −0.018 | 0.077 |
